Experimental data: patent publication US20230312587A1, “PTERIDINONE COMPOUNDS AND USES THEREOF” (Vertex Pharmaceutical Incorporated, priority 2018, published 2023)

system: β-catenin-TCF-mediated reporter transcription activity in Colo 205 cells; assay: Colo 205 reporter assay (TCF/LEF luciferase); format: cell-based; details: Colo 205 TCF/LEF luciferase reporter, five hours after addition of compound; read-out: TCF reporter Colo205 IC50
How it was run: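 Luciferase signal from a TCF/LEF-driven reporter, stably integrated in Colo 205 colon cancer cells, was measured 5 h after compound addition.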

Compound	IC50
COCC1(C)C(=O)Nc2c(C)nc(N[C@H]3C[C@H](Oc4cnc(C(F)(F)F)nc4)C3)nc2N1C (relative stereo) [Compound 706, 7-(methoxymethyl)-4,7,8-trimethyl-2-((trans-3-((2-(trifluoromethyl)pyrimidin-5-yl)oxy)cyclobutyl)amino)-7,8-dihydropteridin-6(5H)-one]	300 to 1000 nM
(7S)-7-(2-hydroxyethyl)-4-methyl-2-(((1-((6-(trifluoromethyl)pyridin-3-yl)methyl)-1H-pyrazol-4-yl)methyl)amino)-7,8-dihydropteridin-6(5H)-one [Compound 440]	< 300 nM

same assay, conditions: Homo sapiens, 5 h; Colo 205 TCF/LEF luciferase reporter, five hours after addition of compound; read-out: TCF reporter Colo205 IC50

Compound	IC50
Cc1nc(N[C@H]2C[C@@H](NC(=O)Oc3cc(F)c(F)c(F)c3)C2)nc2c1NC(=O)[C@H](C)N2C [Compound 484, 3,4,5-trifluorophenyl (cis-3-(((S)-4,7,8-trimethyl-6-oxo-5,6,7,8-tetrahydropteridin-2-yl)amino)cyclobutyl)carbamate]	1000 to 5000 nM

same assay, conditions: Homo sapiens, COLO 205, 5 h, Colo 205 TCF/LEF luciferase reporter, five hours after addition of compound; read-out: TCF reporter Colo205 IC50

Compound	IC50
C[C@H]1C(=O)Nc2c(CO)nc(NCc3cnn(Cc4ccc(C(F)(F)F)nc4)c3)nc2N1C [Compound 487, (7S)-4-(hydroxymethyl)-7,8-dimethyl-2-(((1-((6-(trifluoromethyl)pyridin-3-yl)methyl)-1H-pyrazol-4-yl)methyl)amino)-7,8-dihydropteridin-6(5H)-one]	300 to 1000 nM
Cc1nc(N[C@H]2C[C@@H](Nc3ncc(C#N)cc3F)C2)nc2c1NC(=O)[C@H](C(C)C)N2C [Compound 715, 5-fluoro-6-((cis-3-(((S)-7-isopropyl-4,8-dimethyl-6-oxo-5,6,7,8-tetrahydropteridin-2-yl)amino)cyclobutyl)amino)nicotinonitrile]	1000 to 5000 nM
Cc1nc(NCc2cnn(Cc3cn(C)nc3C(F)(F)F)c2)nc2c1NC(=O)[C@H](C)N2C [Compound 159, (7S)-4,7,8-trimethyl-2-(((1-((1-methyl-3-(trifluoromethyl)-1H-pyrazol-4-yl)methyl)-1H-pyrazol-4-yl)methyl)amino)-7,8-dihydropteridin-6(5H)-one]	300 to 1000 nM
Cc1nc(N[C@H]2C[C@H](Cn3nccc3C(F)(F)F)C2)nc2c1NC(=O)C1(CCOC1)N2C (relative stereo) [Compound 688, 4′,8′-dimethyl-2′-((trans-3-((5-(trifluoromethyl)-1H-pyrazol-1-yl)methyl)cyclobutyl)amino)-4,5,5′,8′-tetrahydro-2H,6′H-spiro[furan-3,7′-pteridin]-6′-one]	< 300 nM
Cc1nc(NCc2cnn(Cc3cnc(C(F)(F)F)c(F)c3)c2)nc2c1NC(=O)[C@H](C)N2C [Compound 209, (7S)-2-(((1-((5-fluoro-6-(trifluoromethyl)pyridin-3-yl)methyl)-1H-pyrazol-4-yl)methyl)amino)-4,7,8-trimethyl-7,8-dihydropteridin-6(5H)-one]	< 300 nM
Cc1nc(N[C@@H]2CCc3nn(Cc4ccc(C(F)(F)F)nc4)cc32)nc2c1NC(=O)[C@H](C)N2C [Compound 547, (7S)-4,7,8-trimethyl-2-(((R)-2-((6-(trifluoromethyl)pyridin-3-yl)methyl)-2,4,5,6-tetrahydrocyclopenta[c]pyrazol-4-yl)amino)-7,8-dihydropteridin-6(5H)-one]	1000 to 5000 nM
Cc1nc(NCc2cnn(CC3CC4CCC3C4)c2)nc2c1NC(=O)[C@H](C)N2C (stereo partly drawn) [Compound 134, (7S)-2-(((1-(bicyclo[2.2.1]heptan-2-ylmethyl)-1H-pyrazol-4-yl)methyl)amino)-4,7,8-trimethyl-7,8-dihydropteridin-6(5H)-one]	< 300 nM
Cc1nc(N[C@H]2C[C@@H](COc3ccc(C(F)(F)F)nc3)C2)nc2c1NC(=O)[C@H](C)N2C [Compound 364, (7S)-4,7,8-trimethyl-2-((cis-3-(((6-(trifluoromethyl)pyridin-3-yl)oxy)methyl)cyclobutyl)amino)-7,8-dihydropteridin-6(5H)-one]	< 300 nM
COc1c(F)cc(Cn2cnc(CNc3nc(C)c4c(n3)N(C)[C@@H](C(C)C)C(=O)N4)n2)cc1F [Compound 488, (S)-2-(((1-(3,5-difluoro-4-methoxybenzyl)-1H-1,2,4-triazol-3-yl)methyl)amino)-7-isopropyl-4,8-dimethyl-7,8-dihydropteridin-6(5H)-one]	1000 to 5000 nM
Cc1nc(N[C@H]2C[C@H](Oc3ccc(C(F)(F)F)nc3)C2)nc2c1NC(=O)[C@H](COC(C)(C)C)N2C [Compound 725, (S)-7-(tert-butoxymethyl)-4,8-dimethyl-2-((trans-3-((6-(trifluoromethyl)pyridin-3-yl)oxy)cyclobutyl)amino)-7,8-dihydropteridin-6(5H)-one]	< 300 nM
Cc1nc(N[C@H]2C[C@H](NC(=O)Nc3ccc(Cl)nc3)C2)nc2c1NC(=O)[C@H](C)N2C [Compound 463, 1-(6-chloropyridin-3-yl)-3-(trans-3-(((S)-4,7,8-trimethyl-6-oxo-5,6,7,8-tetrahydropteridin-2-yl)amino)cyclobutyl)urea]	≥ 5000 nM
COc1c(F)ccc(Cn2cc(CNc3nc(C)c4c(n3)N(C)[C@@H](C)C(=O)N4)cn2)c1F [Compound 88, (7S)-2-(((1-(2,4-difluoro-3-methoxybenzyl)-1H-pyrazol-4-yl)methyl)amino)-4,7,8-trimethyl-7,8-dihydropteridin-6(5H)-one]	< 300 nM
Cc1nc(N[C@H]2C[C@H](Oc3cnc(C(F)(F)F)nc3)C2)nc2c1NC(=O)[C@H](C)N2C [Compound 333, (7S)-4,7,8-trimethyl-2-((trans-3-((2-(trifluoromethyl)pyrimidin-5-yl)oxy)cyclobutyl)amino)-7,8-dihydropteridin-6(5H)-one]	< 300 nM
Cc1nc(NCc2cnn(Cc3ccnc(F)c3)c2)nc2c1NC(=O)[C@H](C)N2C [Compound 180, (7S)-2-(((1-((2-fluoropyridin-4-yl)methyl)-1H-pyrazol-4-yl)methyl)amino)-4,7,8-trimethyl-7,8-dihydropteridin-6(5H)-one]	< 300 nM
COC1(C2C(=O)Nc3c(C)nc(N[C@H]4C[C@@H](Cn5nccc5C(F)(F)F)C4)nc3N2C)CC1 (relative stereo) [Compound 676, 7-(1-methoxycyclopropyl)-4,8-dimethyl-2-((cis-3-((5-(trifluoromethyl)-1H-pyrazol-1-yl)methyl)cyclobutyl)amino)-7,8-dihydropteridin-6(5H)-one]	< 300 nM
Cc1nc(N[C@@H]2CCN(Cc3ccccc3)C2)nc2c1NC(=O)[C@H](C)N2C [Compound 372, (7S)-2-(((R)-1-benzylpyrrolidin-3-yl)amino)-4,7,8-trimethyl-7,8-dihydropteridin-6(5H)-one]	≥ 5000 nM
Cc1nc(NCc2cnn(Cc3ccc(F)cc3C(F)(F)F)c2)nc2c1NC(=O)[C@H](C)N2C [Compound 67, (7S)-2-(((1-(4-fluoro-2-(trifluoromethyl)benzyl)-1H-pyrazol-4-yl)methyl)amino)-4,7,8-trimethyl-7,8-dihydropteridin-6(5H)-one]	< 300 nM
CCC[C@H]1C(=O)Nc2c(C)nc(NCc3cnn(Cc4ccc(C(F)(F)F)nc4)c3)nc2N1C [Compound 220, (7S)-4,8-dimethyl-7-propyl-2-(((1-((6-(trifluoromethyl)pyridin-3-yl)methyl)-1H-pyrazol-4-yl)methyl)amino)-7,8-dihydropteridin-6(5H)-one]	< 300 nM
Cc1ccc(OC[C@H]2C[C@@H](Nc3nc(C)c4c(n3)N(C)[C@@H](C(C)C)C(=O)N4)C2)cn1 [Compound 571, (S)-7-isopropyl-4,8-dimethyl-2-((cis-3-(((6-methylpyridin-3-yl)oxy)methyl)cyclobutyl)amino)-7,8-dihydropteridin-6(5H)-one]	300 to 1000 nM
Cc1nc(N[C@H]2C[C@H](Oc3ccc(OC(F)(F)F)c(F)c3)C2)nc2c1NC(=O)[C@H](C)N2C [Compound 359, (7S)-2-((trans-3-(3-fluoro-4-(trifluoromethoxy)phenoxy)cyclobutyl)amino)-4,7,8-trimethyl-7,8-dihydropteridin-6(5H)-one]	< 300 nM
Cc1nc(N[C@H]2C[C@H](OCc3cc(F)c(F)c(F)c3)C2)nc2c1N(C)C(=O)[C@H](C)N2C [Compound 255, (7S)-4,5,7,8-tetramethyl-2-((trans-3-((3,4,5-trifluorobenzyl)oxy)cyclobutyl)amino)-7,8-dihydropteridin-6(5H)-one]	< 300 nM
CCN1C(=O)C2(CC2)N(CC)c2nc(NCc3cnn(Cc4ccc(F)cc4)c3)ncc21 [Compound 232, 5′,8′-diethyl-2′-(((1-(4-fluorobenzyl)-1H-pyrazol-4-yl)methyl)amino)-5′,8′-dihydro-6′H-spiro[cyclopropane-1,7′-pteridin]-6′-one]	< 300 nM
CC[C@H]1C(=O)Nc2c(C)nc(N[C@H]3C[C@H](Oc4cnc(C(F)(F)F)nc4)C3)nc2N1C [Compound 645, (S)-7-ethyl-4,8-dimethyl-2-((trans-3-((2-(trifluoromethyl)pyrimidin-5-yl)oxy)cyclobutyl)amino)-7,8-dihydropteridin-6(5H)-one]	< 300 nM
Cc1nc(NCc2cnn(Cc3cncc(C(F)(F)F)c3)c2)nc2c1NC(=O)[C@H](C)N2C [Compound 206, (7S)-4,7,8-trimethyl-2-(((1-((5-(trifluoromethyl)pyridin-3-yl)methyl)-1H-pyrazol-4-yl)methyl)amino)-7,8-dihydropteridin-6(5H)-one]	< 300 nM
COc1ccc(O[C@H]2C[C@H](Nc3nc(C)c4c(n3)N(C)[C@@H](C)C(=O)N4)C2)cc1F [Compound 350, (7S)-2-((trans-3-(3-fluoro-4-methoxyphenoxy)cyclobutyl)amino)-4,7,8-trimethyl-7,8-dihydropteridin-6(5H)-one]	300 to 1000 nM

same assay, conditions: Homo sapiens, COLO 205, 5 h, R-isomer at C2 (corresponding to C2 S-isomer); Colo 205 TCF/LEF luciferase reporter, 5 h; read-out: TCF reporter Colo205 IC50

Compound	IC50
Cc1nc(NCc2cnn(Cc3ccnc(C#N)c3)c2)nc2c1NC(=O)[C@@H](C)N2C [Compound I-1649]	≥ 5000 nM
Cc1nc(NCc2cnn(Cc3ccc(C(F)(F)F)nc3)c2)nc2c1N(C)C(=O)[C@@H](C)N2C [Compound I-1363]	300 to 1000 nM
